Results taken from a melting point compilation (Tetko et al.; mined from patent text by program, amines drawn as free bases though some values may be those of a salt).

| melting point [°C] | SMILES |
| --- | --- |
| 118 to 122 | COc1ccc(C(=O)c2ccoc2)c(Cl)c1Cl |
| 149 | C=CCCOc1ccc2c(c1)C(=O)c1cc3ccccc3cc1C2=O |
| 69 to 71 | COc1cc(-c2ccccc2)on1 |
| 117 | CC(C)(C)OC(=O)N1C(=O)CCC1c1ccc(F)cc1 (stereo unspecified) |
| 149 to 150 | CCOc1cc(COc2nn(-c3ccccc3)cc2C=O)ccc1OCc1nc(-c2ccco2)oc1C |
| 127 to 128 | C=CCc1cc(C(=O)OCC)ccc1NC(C)=O |
| 255 to 258 | Cn1cc(C(=O)O)c(=O)c2cc(F)c(F)c(F)c21 |
| 234 to 237 | COc1cc2c(cc1OC)CC(=O)NC=C2 |
| 176 to 177 | Cc1ccc(OC(=O)c2cc3cc(S(=O)(=O)N(C)C)c(Cl)c(Cl)c3o2)cc1 |
| 114 to 115 | O=C(O)CCc1cn(Cc2ccc(OCc3csc(-c4ccco4)n3)cc2)cc1-c1ccccc1 |
| 178 to 180 | O=c1[nH]c2ncc(-c3ccc(O)cc3)nc2n1CC1CCCN1 (stereo unspecified) |
| 77.4 to 79.8 | COc1ccc(C2=CCCC(=O)O2)cc1 |
| 95 to 97 | CCCCCCS(=O)(=O)c1ccc(N)cc1 |
| 129 to 131 | CCN1C(=O)C(C)(C)C(=O)N(C)c2cc(CN(CCn3ccc4oc(C)cc4c3=O)Cc3cnccn3)ccc21 |
| 211 to 212 | COc1ccnc(CCc2nc3cc(-c4ccc(S(=O)(=O)NCc5ccccc5)cc4)cnc3[nH]2)c1 |
| 190 to 191 | COc1ccccc1Nc1nnc(Cc2ccncc2)c2ccccc12 |
| 234 | N#Cc1ccc(C(=O)NCc2ccc(N3CC(C(=O)O)OC3=O)cc2)cc1 (stereo unspecified) |
| 107 to 108 | COc1ccccc1N1CCN(CCCC2CCc3onc(-c4ccc(F)cc4)c3C2=O)CC1 (stereo unspecified) |
| 194 to 196 | CSCC(C)(C)NC(=O)c1c(I)cccc1-c1ccc(C(F)(F)F)cc1 |
| 240 to 245 | C=C1Cc2cc3c(cc2C(c2ccc(N(C(C)=O)C(C)=O)cc2)=NN1C(C)=O)OCO3 |

| melting point [°C] | SMILES |
| --- | --- |
| 254 to 256 | COc1ccc2cnc3c(c2c1)NC(=O)CC3 |
| 232 to 233 | Cc1cc(CN2CCOCC2)cc2c1Cc1c(-c3ccsc3)n[nH]c1-2 |
| 111 to 115 | C=C(C)C(=O)NCCCCCC(=O)Nc1cc(Cl)c(C)c(Cl)c1O |
| 114 to 131 | CON=C(C)CN1C(=O)c2ccccc2C1=O |
| 140 to 141 | COC(=O)Nc1cc(O)c(Cl)cc1F |
| 85 to 86 | CN(C)CC1CCc2cc(OC(=O)c3ccc(-c4ccccc4)cc3)ccc2C1 (stereo unspecified) |
| 206 to 208 | COc1nc(Nc2ccc(Cl)cc2[N+](=O)[O-])nc(OC)n1 |
| 112 to 114 | CC(C)c1cccc(C(C)C)c1NC(=O)N(Cc1ccccc1)CC1(c2ncccn2)CCCCC1 |
| 95.5 to 96 | COC(=O)c1ccc(C#CCCO)cc1 |
| 167 to 168 | CC(NC(=O)c1c(F)cccc1F)C(F)(F)F (stereo unspecified) |
| 149 to 152 | N#Cc1c(F)cccc1S(=O)(=O)N(Cl)Cl |
| > 260 | O=C1c2ccccc2C(=O)c2sc(Nc3ccccc3)nc21 |
| 136 to 140 | Cc1nc2ccccc2nc1OCc1nc(Cl)cc(N2CCCC2)n1 |
| 154 to 155 | Cc1nn(-c2ccccn2)c2ncc(C(=O)N(C)c3ccccc3)c(Cl)c12 |
| 55 to 56 | CCOP(=O)(Cc1cccc2cccc(CP(=O)(OCC)OCC)c12)OCC |
| 66 to 68 | COC(=O)C(CC1CCCC1)c1ccc(S(C)(=O)=O)c(F)c1 (stereo unspecified) |
| > 250 | CCc1cccc2c1[nH]c1c2ccc2c(C=O)c[nH]c21 |
| 106 | CC(C)(C)c1ccc(-c2cccc(-c3ccc(C(C)(C)C)cc3)c2N)cc1 |
| 152 to 159 | CNC(=O)NC1CCC(OC)c2sccc21 (stereo unspecified) |
| 117 to 118 | Cc1ccc(S(=O)(=O)OCC2COc3ccc([N+](=O)[O-])c(C=CC#N)c3O2)cc1 (stereo unspecified) |

| SMILES | melting point [°C] |
| --- | --- |
| COc1c(C(O)CNC(C)(C)Cc2ccccc2C)ccc(O)c1O (stereo unspecified) | 114 |
